Assays:
Experiment in all cases: Bliss excess, mean over the matrix (fraction); higher = more synergy
[1] = system: COR-L95 (Small Cell Lung Carcinoma)
Outline: (§1)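 Bliss excess equals the observed combination effect minus the expected value EA + EB − EA·EB, where EA and EB are the effects of each agent alone. Combination Emax is the second-highest inhibition within the matrix. Inhibition was scaled from CellTiter-Glo 2.0 luminescence, with 0 set by vehicle wells and 1 by blank wells, after 72 hours of two-drug dosing of cells plated in 1536-well plates.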

[2] = system: DOV13 (Ovarian Carcinoma)
Outline: as §1

[3] = system: HT-29 (Colorectal Carcinoma)
Outline: as §1

[4] = system: IHH-4 (Thyroid Gland Carcinoma)
Outline: as §1

[5] = system: KARPAS-1106P (B-Cell Non-Hodgkin's Lymphoma)
Outline: as §1

[6] = system: LS-513 (Colorectal Carcinoma)
Outline: as §1

[7] = system: MDA-MB-157 (Breast Carcinoma)
Outline: as §1

[8] = system: MFH-ino (Other Solid Carcinomas)
Outline: as §1

[9] = system: NCI-H211 (Small Cell Lung Carcinoma)
Outline: as §1

NCI-H2595 (Mesothelioma) = system: NCI-H2595 (Mesothelioma)
Outline: as §1

SN12C (Kidney Carcinoma) = system: SN12C (Kidney Carcinoma)
Outline: as §1

[10] = system: SW1088 (Low Grade Glioma)
Outline: as §1

[11] = system: SW1783 (Low Grade Glioma)
Outline: as §1

[12] = system: U-266 (Plasma Cell Myeloma)
Outline: as §1

Structure (SMILES)	Bliss excess [1]	Bliss excess [2]	Bliss excess [3]	Bliss excess [4]	Bliss excess [5]	Bliss excess [6]	Bliss excess [7]	Bliss excess [8]	Bliss excess [9]	Bliss excess (NCI-H2595 (Mesothelioma))	Bliss excess (SN12C (Kidney Carcinoma))	Bliss excess [10]	Bliss excess [11]	Bliss excess [12]
O=C(c1cc(Cc2n[nH]c(=O)c3ccccc23)ccc1F)N1CCN(C(=O)C2CC2)CC1 [Olaparib] + CN(CC[C@H](CSC1=CC=CC=C1)NC2=C(C=C(C=C2)S(=O)(=O)NC(=O)C3=CC=C(C=C3)N4CCC(CC4)[C@H](C5=CC=CC=C5C6=CC=C(C=C6)Cl)O)S(=O)(=O)C(F)(F)F)CCO [AZD4320] (first compound max 10 µM, 7x7, partner max 1 µM)	0.0593	0.0543	-0.0278	-0.0368	-0.035	-0.0326	-0.0094	-0.0594	0.0233	-0.045	-0.0401	-0.0518	-0.0391	-0.0187
Cc1c2c(nn1C)CSCc1cc(n(C)n1)CSc1cc(c3ccccc3c1)OCCCc1c(C(=O)O)n(C)c3c-2c(Cl)ccc13 [AZD5991] + CC(=O)O[C@H]1C(=O)[C@@]2(C)[C@H]([C@H](OC(=O)c3ccccc3)[C@]3(O)C[C@H](OC(=O)[C@H](O)[C@@H](NC(=O)c4ccccc4)c4ccccc4)C(C)=C1C3(C)C)[C@]1(OC(C)=O)CO[C@@H]1C[C@@H]2O [Paclitaxel] (first compound max 1 µM, 7x7, partner max 3 µM)	-0.0187	-0.0492	-0.1	-0.0341	0.132	-0.0216	0.078	-0.0321	0.0016	-0.0504	0.0104	-0.0192	-0.0242	-0.0074
N#Cc1cnc(Nc2cc(NC[C@H]3CNCCO3)c(C(F)(F)F)cn2)cn1 [SRA737] + Nc1ccn([C@@H]2O[C@H](CO)[C@@H](O)C2(F)F)c(=O)n1 [Gemcitabine] (first compound max 10 µM, 7x7, partner max 0.3 µM)	-0.0067	0.0821	0.0573	0.0649	0.0126	-0.0189	0.0499	-0.0148	0.0372	0.0252	0.0884	-0.0658	0.0091	-0.0101
Cc1c2c(nn1C)CSCc1cc(n(C)n1)CSc1cc(c3ccccc3c1)OCCCc1c(C(=O)O)n(C)c3c-2c(Cl)ccc13 [AZD5991] + CS(=O)(=O)CCNCc1ccc(-c2ccc3ncnc(Nc4ccc(OCc5cccc(F)c5)c(Cl)c4)c3c2)o1 [Lapatinib] (first compound max 1 µM, 7x7, partner max 10 µM)	-0.0199	0.0072	-0.0216	0.011	0.0482	0.0305	0.0108	-0.0513	-0.0118	-0.0398	0.0035	-0.0137	-0.0106	-0.0501
C[C@@H](Oc1cc(-c2cnn(C3CCNCC3)c2)cnc1N)c1c(Cl)ccc(F)c1Cl [Crizotinib] + CC1=C(C(=CC=C1)Cl)NC(=O)C2=CN=C(S2)NC3=CC(=NC(=N3)C)N4CCN(CC4)CCO [Dasatinib] (first compound max 10 µM, 7x7, partner max 2 µM)	-0.0662	0.067	-0.0002	0.0456	-0.026	-0.0485	-0.0052	0.0577	-0.0089	0.0519	-0.0384	0.016	0.103	-0.0102
CC1(C)CCC(CN2CCN(c3ccc(C(=O)NS(=O)(=O)c4ccc(NCC5CCOCC5)c([N+](=O)[O-])c4)c(Oc4cnc5[nH]ccc5c4)c3)CC2)=C(c2ccc(Cl)cc2)C1 [Venetoclax] + CS(=O)(=O)CCNCc1ccc(-c2ccc3ncnc(Nc4ccc(OCc5cccc(F)c5)c(Cl)c4)c3c2)o1 [Lapatinib] (first compound max 1 µM, 7x7, partner max 10 µM)	-0.0566	-0.0228	-0.0493	-0.0082	-0.0183	-0.0203	-0.0549	-0.0699	-0.0037	-0.0574	-0.0179	-0.0313	-0.0232	-0.0555
O=C(c1cc(Cc2n[nH]c(=O)c3ccccc23)ccc1F)N1CCN(C(=O)C2CC2)CC1 [Olaparib] + COc1nnc2ccc(N3CCC(c4ccc(OCCN5CCN(C)C(=O)[C@H]5C)cc4)CC3)nn12 [AZD5153] (first compound max 10 µM, 7x7, partner max 1 µM)	-0.0488	-0.0778	-0.0406	-0.0058	-0.0162	-0.0628	-0.0507	-0.07	-0.0168	-0.12	-0.0222	-0.0563	-0.0177	-0.0332
N#Cc1cnc(Nc2cc(NC[C@H]3CNCCO3)c(C(F)(F)F)cn2)cn1 [SRA737] + O=c1[nH]cc(F)c(=O)[nH]1 [5-Fluorouracil] (first compound max 10 µM, 7x7, partner max 20 µM)	-0.0218	0.0258	0.021	0.098	0.0407	-0.0287	0.0781	0.0373	0.0823	-0.0448	-0.0474	0.0081	0.0143	0.0562
C=CCn1c(=O)c2cnc(Nc3ccc(N4CCN(C)CC4)cc3)nc2n1-c1cccc(C(C)(C)O)n1 [AZD1775] + CCc1c2c(nc3ccc(O)cc13)-c1cc3c(c(=O)n1C2)COC(=O)[C@]3(O)CC [SN-38] (first compound max 1 µM, partner max 0.3 µM)	-0.103	-0.0262	0.027	-0.0485	-0.0946	-0.0867	0.0495	-0.0756	-0.0576	-0.0096	0.0364	-0.0641	-0.0817	-0.0555
Cc1c2c(nn1C)CSCc1cc(n(C)n1)CSc1cc(c3ccccc3c1)OCCCc1c(C(=O)O)n(C)c3c-2c(Cl)ccc13 [AZD5991] + Nc1ccn([C@@H]2O[C@H](CO)[C@@H](O)C2(F)F)c(=O)n1 [Gemcitabine] (first compound max 1 µM, 7x7, partner max 0.3 µM)	-0.0274	-0.0605	0.0168	0.0122	-0.0216	-0.102	-0.0145	-0.0495	0.0489	-0.0053	-0.0232	-0.0666	-0.0199	0.0379
N#Cc1cnc(Nc2cc(NC[C@H]3CNCCO3)c(C(F)(F)F)cn2)cn1 [SRA737] + CCc1c2c(nc3ccc(O)cc13)-c1cc3c(c(=O)n1C2)COC(=O)[C@]3(O)CC [SN-38] (first compound max 10 µM, 7x7, partner max 0.3 µM)	-0.0191	-0.0469	0.0196	-0.0117	-0.0918	-0.114	0.0125	-0.0461	-0.0649	-0.0762	-0.0485	-0.0339	-0.038	0.0402
CN(CCO)CC[C@H](CSc1ccccc1)Nc1ccc(S(=O)(=O)NC(=O)c2ccc(N3CCC([C@@H](O)c4ccccc4-c4ccc(Cl)cc4)CC3)cc2)cc1S(=O)(=O)C(F)(F)F [AZD4320] + CC(=O)O[C@H]1C(=O)[C@@]2(C)[C@H]([C@H](OC(=O)c3ccccc3)[C@]3(O)C[C@H](OC(=O)[C@H](O)[C@@H](NC(=O)c4ccccc4)c4ccccc4)C(C)=C1C3(C)C)[C@]1(OC(C)=O)CO[C@@H]1C[C@@H]2O [Paclitaxel] (first compound max 1 µM, 7x7, partner max 3 µM)	0.141	0.0136	0.0034	-0.0267	0.0929	-0.0136	0.0168	0.0474	0.0259	0.0192	0.153	0.0303	0.0754	0.0026
C[C@@H]1COCCN1c1cc(C2([S@](C)(=N)=O)CC2)nc(-c2ccnc3[nH]ccc23)n1 [AZD6738] + C1CC(C1)(C(=O)[O-])C(=O)[O-].N.N.[Pt+2] [Carboplatin] (first compound max 10 µM, 7x7, partner max 10 µM)	-0.106	-0.0236	-0.0194	0.0159	-0.0247	-0.0225	-0.0061	-0.0397	-0.0292	-0.0413	-0.026	-0.0426	-0.0337	-0.0751
O=C(c1cc(Cc2n[nH]c(=O)c3ccccc23)ccc1F)N1CCN(C(=O)C2CC2)CC1 [Olaparib] + CC1(C)CCC(CN2CCN(c3ccc(C(=O)NS(=O)(=O)c4ccc(NCC5CCOCC5)c([N+](=O)[O-])c4)c(Oc4cnc5[nH]ccc5c4)c3)CC2)=C(c2ccc(Cl)cc2)C1 [Venetoclax] (first compound max 10 µM, 7x7, partner max 1 µM)	0.0791	-0.0322	-0.0304	-0.0118	-0.0169	-0.0498	-0.0406	-0.0622	0.0865	-0.0577	-0.0534	-0.0611	-0.0349	0.0388

Reference: the supplement of paper PMC11061612
